*1 amine or outer side, *2 acyl side, *3 side chain or, on linkers, in order; H or OH if unused. Where a SMILES comes first, the peptide text is derived from it. Bridges are numbered along the chain shown (N, C = ends). [ ]: non-standard residue; d: D form. The star is where a group is joined. DOTA = O=C(O)CN1CCN(CC(=O)O)CCN(CC(=O)*)CCN(CC(=O)O)CC1; N(2-mercaptoethyl)Gly = O=C(CN(CCS[*:3])[*:1])[*:2]
Columns and labels:
Assay in all cases: Cerep off-target radioligand binding
5-HT1A (h) = biological target: T1, 5-HT1A (h) (Homo sapiens, UniProt P08908); details: 1 micromolar; agonist radioligand; read-out: % Activity: Inhibition of Control Specific Binding
T1 construct: Eurofins Cerep (contract assay)
Procedure: (§1) In this example, off-target interactions for SEQ ID NO.
(§2) The assays were performed by Eurofins Cerep (Celle 1'Evescault, France). Compound binding was calculated as a % inhibition of the binding of a radioactively labeled ligand specific for each target. Compound enzyme inhibition effect was calculated as a % inhibition of control enzyme activity. In each experiment and if applicable, the respective reference compound was tested concurrently with SEQ ID NO. 3, and the data were compared with historical values determined at Eurofins. The experiment was accepted in accordance with Eurofins validation Standard Operating Procedure. Results showing an inhibition (or stimulation for assays run in basal conditions) higher than 50% are considered to represent significant effects of the test compounds.

5-HT1B (h) = biological target: T2, 5-HT1B (h) (Homo sapiens, UniProt P28222); details: 1 micromolar; antagonist radioligand; read-out: % Activity: Inhibition of Control Specific Binding
T2 construct: Eurofins Cerep (contract assay)
Procedure: as §1, §2

5-HT2A (h) = biological target: T3, 5-HT2A (h) (Homo sapiens, UniProt P28223); details: 1 micromolar; agonist radioligand; read-out: % Activity: Inhibition of Control Specific Binding
T3 construct: Eurofins Cerep (contract assay)
Procedure: as §1, §2

5-HT2B (h) = biological target: T4, 5-HT2B (h) (Homo sapiens, UniProt P41595); details: 1 micromolar; agonist radioligand; read-out: % Activity: Inhibition of Control Specific Binding
T4 construct: Eurofins Cerep (contract assay)
T4 sequence (P41595 whole entry): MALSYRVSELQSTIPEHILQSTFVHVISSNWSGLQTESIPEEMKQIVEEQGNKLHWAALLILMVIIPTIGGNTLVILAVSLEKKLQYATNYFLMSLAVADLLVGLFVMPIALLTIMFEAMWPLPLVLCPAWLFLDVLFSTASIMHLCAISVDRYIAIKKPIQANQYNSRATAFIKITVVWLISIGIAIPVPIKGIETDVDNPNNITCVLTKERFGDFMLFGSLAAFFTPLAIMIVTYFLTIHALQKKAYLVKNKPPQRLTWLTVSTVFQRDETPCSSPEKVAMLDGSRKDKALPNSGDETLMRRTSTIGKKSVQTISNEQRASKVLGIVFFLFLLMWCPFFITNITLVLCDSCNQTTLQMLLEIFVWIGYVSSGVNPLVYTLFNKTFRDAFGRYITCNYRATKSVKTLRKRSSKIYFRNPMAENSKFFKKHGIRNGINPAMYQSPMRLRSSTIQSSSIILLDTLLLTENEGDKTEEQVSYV
Procedure: as §1, §2

5-HT3 (h) = biological target: T5, 5-HT3 (h) (Homo sapiens, UniProt P46098); details: 1 micromolar; antagonist radioligand; read-out: % Activity: Inhibition of Control Specific Binding
T5 construct: Eurofins Cerep (contract assay)
T5 sequence (P46098 24-478): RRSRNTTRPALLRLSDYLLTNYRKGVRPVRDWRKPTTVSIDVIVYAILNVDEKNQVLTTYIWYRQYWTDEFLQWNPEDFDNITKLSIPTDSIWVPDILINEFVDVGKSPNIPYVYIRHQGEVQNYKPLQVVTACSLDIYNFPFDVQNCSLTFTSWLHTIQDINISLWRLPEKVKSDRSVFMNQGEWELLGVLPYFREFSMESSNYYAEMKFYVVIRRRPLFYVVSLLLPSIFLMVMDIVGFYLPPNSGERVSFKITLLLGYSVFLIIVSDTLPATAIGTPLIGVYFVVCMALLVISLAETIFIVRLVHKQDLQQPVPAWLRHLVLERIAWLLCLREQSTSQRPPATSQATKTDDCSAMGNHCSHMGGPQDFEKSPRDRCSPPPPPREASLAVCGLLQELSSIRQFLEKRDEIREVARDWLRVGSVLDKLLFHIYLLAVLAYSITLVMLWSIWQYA
Procedure: as §1, §2

A2A (h) = A2A (h) (Homo sapiens, UniProt P29274); details: 1 micromolar; agonist radioligand; read-out: % Activity: Inhibition of Control Specific Binding
Procedure: as §1, §2

CB1 (h) = CB1 (h) (Homo sapiens, UniProt P21554); details: 1 micromolar; agonist radioligand; read-out: % Activity: Inhibition of Control Specific Binding
Procedure: as §1, §2

CB2 (h) = CB2 (h) (Homo sapiens, UniProt P34972); details: 1 micromolar; agonist radioligand; read-out: % Activity: Inhibition of Control Specific Binding
CB2 (h), sequence (P34972 whole entry): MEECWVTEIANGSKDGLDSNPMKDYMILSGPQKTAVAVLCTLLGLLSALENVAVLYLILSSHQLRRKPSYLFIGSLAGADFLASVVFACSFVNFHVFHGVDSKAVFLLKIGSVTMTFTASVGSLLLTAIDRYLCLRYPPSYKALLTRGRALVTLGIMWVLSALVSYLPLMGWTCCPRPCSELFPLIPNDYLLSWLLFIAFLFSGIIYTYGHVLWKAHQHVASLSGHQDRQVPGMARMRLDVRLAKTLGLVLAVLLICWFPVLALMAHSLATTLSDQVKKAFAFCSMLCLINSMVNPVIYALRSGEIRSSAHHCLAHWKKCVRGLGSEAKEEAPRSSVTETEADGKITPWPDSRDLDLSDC
Procedure: as §1, §2

CCK1 (CCKA) (h) = CCK1 (CCKA) (h) (Homo sapiens, UniProt P32238); details: 1 micromolar; agonist radioligand; read-out: % Activity: Inhibition of Control Specific Binding
Procedure: as §1, §2

D1 (h) = D1 (h) (Homo sapiens, UniProt P21728); details: 1 micromolar; antagonist radioligand; read-out: % Activity: Inhibition of Control Specific Binding
Procedure: as §1, §2

D2S (h) = D2S (h) (Homo sapiens, UniProt P14416); details: 1 micromolar; agonist radioligand; read-out: % Activity: Inhibition of Control Specific Binding
Procedure: as §1, §2

ETA (h) = ETA (h) (Homo sapiens, UniProt P25101); details: 1 micromolar; agonist radioligand; read-out: % Activity: Inhibition of Control Specific Binding
Procedure: as §1, §2

GR (h) = biological target: T6, GR (h) (Homo sapiens, UniProt P04150); details: 1 micromolar; agonist radioligand; read-out: % Activity: Inhibition of Control Specific Binding
T6 construct: Eurofins Cerep (contract assay)
Procedure: as §1, §2

H1 (h) = H1 (h) (Homo sapiens, UniProt P35367); details: 1 micromolar; antagonist radioligand; read-out: % Activity: Inhibition of Control Specific Binding
Procedure: as §1, §2

H2 (h) = H2 (h) (Homo sapiens, UniProt P25021); details: 1 micromolar; antagonist radioligand; read-out: % Activity: Inhibition of Control Specific Binding
Procedure: as §1, §2

M1 (h) = M1 (h) (Homo sapiens, UniProt P11229); details: 1 micromolar; antagonist radioligand; read-out: % Activity: Inhibition of Control Specific Binding
Procedure: as §1, §2

M2 (h) = M2 (h) (Homo sapiens, UniProt P08172); details: 1 micromolar; antagonist radioligand; read-out: % Activity: Inhibition of Control Specific Binding
Procedure: as §1, §2

M3 (h) = M3 (h) (Homo sapiens, UniProt P20309); details: 1 micromolar; antagonist radioligand; read-out: % Activity: Inhibition of Control Specific Binding
M3 (h), sequence (P20309 whole entry): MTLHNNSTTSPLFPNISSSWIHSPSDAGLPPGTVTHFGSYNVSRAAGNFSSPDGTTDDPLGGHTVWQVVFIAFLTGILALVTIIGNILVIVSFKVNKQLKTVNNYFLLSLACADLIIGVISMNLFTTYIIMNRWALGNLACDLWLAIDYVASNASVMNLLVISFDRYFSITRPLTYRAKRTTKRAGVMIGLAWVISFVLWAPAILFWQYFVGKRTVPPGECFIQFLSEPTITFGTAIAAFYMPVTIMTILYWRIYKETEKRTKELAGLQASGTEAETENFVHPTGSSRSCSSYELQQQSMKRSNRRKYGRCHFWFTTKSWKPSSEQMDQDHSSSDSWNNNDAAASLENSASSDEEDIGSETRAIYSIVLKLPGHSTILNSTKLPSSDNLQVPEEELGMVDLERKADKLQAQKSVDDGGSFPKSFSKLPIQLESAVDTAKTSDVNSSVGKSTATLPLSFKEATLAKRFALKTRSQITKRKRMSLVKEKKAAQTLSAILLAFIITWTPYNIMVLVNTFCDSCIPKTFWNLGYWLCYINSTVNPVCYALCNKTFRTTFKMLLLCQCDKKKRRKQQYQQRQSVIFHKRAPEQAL
Procedure: as §1, §2

[1] = biological target: N neuronal alpha 4beta 2 (h) (Homo sapiens, UniProt P17787+P43681); details: 1 micromolar; agonist radioligand; read-out: % Activity: Inhibition of Control Specific Binding
Procedure: as §1, §2

[2] = biological target: T7, Potassium Channel hERG (human) (Homo sapiens, UniProt Q12809); details: [3H] Dofetilide, read-out: % Activity: Inhibition of Control Specific Binding
T7 construct: Eurofins Cerep (contract assay)
T7 sequence (Q12809 whole entry): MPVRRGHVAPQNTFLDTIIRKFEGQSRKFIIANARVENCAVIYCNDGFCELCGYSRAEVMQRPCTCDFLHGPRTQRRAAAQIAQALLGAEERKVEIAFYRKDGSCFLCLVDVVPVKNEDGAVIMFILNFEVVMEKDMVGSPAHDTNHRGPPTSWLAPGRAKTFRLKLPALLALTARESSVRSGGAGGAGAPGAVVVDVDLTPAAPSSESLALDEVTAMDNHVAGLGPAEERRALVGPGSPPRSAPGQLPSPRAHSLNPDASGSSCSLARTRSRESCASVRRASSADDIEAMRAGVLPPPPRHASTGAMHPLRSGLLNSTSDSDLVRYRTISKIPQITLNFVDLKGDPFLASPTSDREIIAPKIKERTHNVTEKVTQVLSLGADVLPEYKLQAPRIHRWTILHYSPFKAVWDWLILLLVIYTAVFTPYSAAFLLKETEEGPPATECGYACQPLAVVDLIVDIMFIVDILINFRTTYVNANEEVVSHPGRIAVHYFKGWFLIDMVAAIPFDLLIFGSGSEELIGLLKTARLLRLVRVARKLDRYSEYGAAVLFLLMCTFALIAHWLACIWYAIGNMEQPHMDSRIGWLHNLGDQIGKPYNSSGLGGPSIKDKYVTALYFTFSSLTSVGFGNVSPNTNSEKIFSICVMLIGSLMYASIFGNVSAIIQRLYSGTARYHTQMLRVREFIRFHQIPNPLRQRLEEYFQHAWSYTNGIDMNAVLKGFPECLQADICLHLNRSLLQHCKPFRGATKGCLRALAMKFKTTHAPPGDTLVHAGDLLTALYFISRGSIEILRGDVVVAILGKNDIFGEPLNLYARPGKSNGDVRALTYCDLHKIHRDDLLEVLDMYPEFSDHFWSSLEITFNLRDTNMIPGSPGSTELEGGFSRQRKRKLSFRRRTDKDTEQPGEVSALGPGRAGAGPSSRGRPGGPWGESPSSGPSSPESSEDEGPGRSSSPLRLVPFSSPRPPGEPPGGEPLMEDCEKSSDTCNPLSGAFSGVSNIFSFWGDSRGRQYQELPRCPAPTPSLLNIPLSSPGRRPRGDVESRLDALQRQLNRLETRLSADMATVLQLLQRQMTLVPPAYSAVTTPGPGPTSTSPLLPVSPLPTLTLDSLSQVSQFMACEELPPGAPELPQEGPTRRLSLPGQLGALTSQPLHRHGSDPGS
Procedure: as §1, §2

V1a (h) = biological target: T8, V1a (h) (Homo sapiens, UniProt P37288); details: 1 micromolar; agonist radioligand; read-out: % Activity: Inhibition of Control Specific Binding
T8 construct: Eurofins Cerep (contract assay)
T8 sequence (P37288 whole entry): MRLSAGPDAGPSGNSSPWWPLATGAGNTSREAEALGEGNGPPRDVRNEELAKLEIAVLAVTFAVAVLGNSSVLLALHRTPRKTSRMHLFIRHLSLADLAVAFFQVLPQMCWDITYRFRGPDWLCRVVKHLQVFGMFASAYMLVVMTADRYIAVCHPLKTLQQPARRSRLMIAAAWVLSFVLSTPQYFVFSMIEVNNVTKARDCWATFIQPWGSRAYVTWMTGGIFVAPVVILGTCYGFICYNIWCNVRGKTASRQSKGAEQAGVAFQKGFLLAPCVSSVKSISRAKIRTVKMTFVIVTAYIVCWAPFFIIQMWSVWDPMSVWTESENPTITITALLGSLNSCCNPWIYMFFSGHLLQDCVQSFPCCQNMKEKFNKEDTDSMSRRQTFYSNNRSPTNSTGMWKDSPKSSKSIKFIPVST
Procedure: as §1, §2

alpha 1A (h) = alpha 1A (h) (Homo sapiens, UniProt P35348); details: 1 micromolar; antagonist radioligand; read-out: % Activity: Inhibition of Control Specific Binding
Procedure: as §1, §2

alpha 2A (h) = alpha 2A (h) (Homo sapiens, UniProt P08913); details: 1 micromolar; antagonist radioligand; read-out: % Activity: Inhibition of Control Specific Binding
Procedure: as §1, §2

beta 1 (h) = beta 1 (h) (Homo sapiens, UniProt P08588); details: 1 micromolar; agonist radioligand; read-out: % Activity: Inhibition of Control Specific Binding
beta 1 (h), sequence (P08588 whole entry): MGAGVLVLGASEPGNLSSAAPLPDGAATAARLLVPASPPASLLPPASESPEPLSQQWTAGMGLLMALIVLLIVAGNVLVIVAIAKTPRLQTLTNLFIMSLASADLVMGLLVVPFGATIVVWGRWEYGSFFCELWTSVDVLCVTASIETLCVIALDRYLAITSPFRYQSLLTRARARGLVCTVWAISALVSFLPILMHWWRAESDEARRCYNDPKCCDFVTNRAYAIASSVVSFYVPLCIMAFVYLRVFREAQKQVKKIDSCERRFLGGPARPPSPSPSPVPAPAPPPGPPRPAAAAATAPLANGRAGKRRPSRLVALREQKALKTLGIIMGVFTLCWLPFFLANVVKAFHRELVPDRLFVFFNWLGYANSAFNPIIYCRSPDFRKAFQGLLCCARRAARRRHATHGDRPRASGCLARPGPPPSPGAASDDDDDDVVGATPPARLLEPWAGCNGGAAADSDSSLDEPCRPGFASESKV
Procedure: as §1, §2

beta 2 (h) = beta 2 (h) (Homo sapiens, UniProt P07550); details: 1 micromolar; antagonist radioligand; read-out: % Activity: Inhibition of Control Specific Binding
Procedure: as §1, §2

delta (DOP) (h) = delta (DOP) (h) (Homo sapiens, UniProt P41143); details: 1 micromolar; agonist radioligand; read-out: % Activity: Inhibition of Control Specific Binding
delta (DOP) (h), sequence (P41143 whole entry): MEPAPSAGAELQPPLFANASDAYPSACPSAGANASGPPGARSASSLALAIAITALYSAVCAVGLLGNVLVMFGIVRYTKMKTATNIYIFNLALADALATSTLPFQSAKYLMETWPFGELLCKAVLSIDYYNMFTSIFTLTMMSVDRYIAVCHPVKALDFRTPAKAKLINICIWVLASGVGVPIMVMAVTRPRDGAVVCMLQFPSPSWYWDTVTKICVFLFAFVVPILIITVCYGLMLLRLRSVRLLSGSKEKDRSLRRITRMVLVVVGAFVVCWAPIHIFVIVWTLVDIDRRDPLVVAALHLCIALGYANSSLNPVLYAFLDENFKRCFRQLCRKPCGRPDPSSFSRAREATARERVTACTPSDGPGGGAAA
Procedure: as §1, §2

dopamine transporter (h) = biological target: T9, dopamine transporter (h) (Homo sapiens, UniProt Q01959); details: 1 micromolar; antagonist radioligand; read-out: % Activity: Inhibition of Control Specific Binding
T9 construct: Eurofins Cerep (contract assay)
Procedure: as §1, §2

kappa (h) (KOP) = kappa (h) (KOP) (Homo sapiens, UniProt P41145); details: 1 micromolar; agonist radioligand; read-out: % Activity: Inhibition of Control Specific Binding
kappa (h) (KOP), sequence (P41145 whole entry): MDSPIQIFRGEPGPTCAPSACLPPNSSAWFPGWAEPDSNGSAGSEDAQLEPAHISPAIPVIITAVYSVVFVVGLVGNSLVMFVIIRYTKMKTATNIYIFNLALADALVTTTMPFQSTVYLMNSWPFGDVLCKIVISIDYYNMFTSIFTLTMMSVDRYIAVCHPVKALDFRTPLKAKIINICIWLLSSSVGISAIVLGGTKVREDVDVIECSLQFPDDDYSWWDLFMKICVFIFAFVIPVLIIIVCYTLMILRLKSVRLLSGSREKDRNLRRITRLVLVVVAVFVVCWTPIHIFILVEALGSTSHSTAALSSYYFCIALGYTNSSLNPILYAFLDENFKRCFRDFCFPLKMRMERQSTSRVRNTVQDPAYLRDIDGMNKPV
Procedure: as §1, §2

mu (MOP) (h) = biological target: T10, mu (MOP) (h) (Homo sapiens, UniProt P35372); details: 1 micromolar; agonist radioligand; read-out: % Activity: Inhibition of Control Specific Binding
T10 construct: Eurofins Cerep (contract assay)
Procedure: as §1, §2

[3] = biological target: T11, norepinephrine transporter (h) (Homo sapiens, UniProt P23975); details: 1 micromolar; antagonist radioligand; read-out: % Activity: Inhibition of Control Specific Binding
T11 construct: Eurofins Cerep (contract assay)
Procedure: as §1, §2

## C[C@@H](O)[C@@H]1NC(=O)[C@H](CCCCN)NC(=O)[C@@H](Cc2c[nH]c3ccccc23)NC(=O)[C@H](Cc2ccccc2)NC(=O)[C@@H](NC(=O)[C@H](CCCNC(=N)N)NC(=O)[C@@H](Cc2ccccc2)NC(=O)CN2CCN(CC(=O)O)CCN(CC(=O)O)CCN(CC(=O)O)CC2)CSSCCN(CC(N)=O)C(=O)[C@H](Cc2ccccc2)NC1=O [SEQ ID NO: 3, DOTA-D-Phe^1-Arg^2-Cys^3-Phe^4-D-Trp^5-Lys^6-Thr^7-Phe^8-NTEG^9-NH2 cyclo 3-9] ({DOTA}-[dF]RCF[dW]KTF[N(2-mercaptoethyl)Gly]-NH2; disulfide 3-9)
5-HT1A (h)
  inhibition at 1 µM: -3%
5-HT1B (h)
  inhibition at 1 µM: 1%
5-HT2A (h)
  inhibition at 1 µM: -2%
5-HT2B (h)
  inhibition at 1 µM: -31%
5-HT3 (h)
  inhibition at 1 µM: 1%
A2A (h)
  inhibition at 1 µM: 0%
CB1 (h)
  inhibition at 1 µM: 1%
CB2 (h)
  inhibition at 1 µM: -1%
CCK1 (CCKA) (h)
  inhibition at 1 µM: -15%
D1 (h)
  inhibition at 1 µM: -1%
D2S (h)
  inhibition at 1 µM: 3%
ETA (h)
  inhibition at 1 µM: -3%
GR (h)
  inhibition at 1 µM: -10%
H1 (h)
  inhibition at 1 µM: 7%
H2 (h)
  inhibition at 1 µM: -7%
M1 (h)
  inhibition at 1 µM: -3%
M2 (h)
  inhibition at 1 µM: -4%
M3 (h)
  inhibition at 1 µM: -7%
[1]
  inhibition at 1 µM: -4%
[2]
  inhibition at 1 micromolar: -9%
V1a (h)
  inhibition at 1 µM: 0%
Alpha 1A (h)
  inhibition at 1 µM: -1%
Alpha 2A (h)
  inhibition at 1 µM: 2%
Beta 1 (h)
  inhibition at 1 µM: 5%
Beta 2 (h)
  inhibition at 1 µM: -6%
Delta (DOP) (h)
  inhibition at 1 µM: 10%
Dopamine transporter (h)
  inhibition at 1 µM: 12%
Kappa (h) (KOP)
  inhibition at 1 µM: 10%
Mu (MOP) (h)
  inhibition at 1 µM: 8%
[3]
  inhibition at 1 µM: -10%

Source: patent publication US20240165282A1, “CONFORMATIONAL CONSTRAINED SOMATOSTATIN RECEPTOR 3 PEPTIDE LIGANDS AND THEIR CONJUGATES AND USES THEREOF” (STARGET PHARMA LTD., priority 2021, published 2024)
